In PMC3763380, “Cellular-Level Versus Receptor-Level Response Threshold Hierarchies in T-Cell Activation” (Frontiers in Immunology, 2013):

Key:
ILA1 TCR = conditions: SPR, ILA1 TCR/pMHCI; not first reported here (footnote Table 1); ligands largely characterized previously; ref [27], [28]; cited from earlier work
Procedure: Table 1 Biophysical parameters. | column: On-rate (M^−1s^−1); Off-rate (s^−1); KD (M) || Figure 3 Functional variation at the cell population level in response to six different peptide ligands. The CTL clone ILA1 was stimulated for 6 h with peptide-pulsed C1R-A2 targets as indicated. Five functional read-outs (CD107a, MIP-1β, TNF-α, IL-2, and IFN-γ) were measured via flow cytometry. […] (A) Overview of functional profiles. Pie chart segments represent the fraction of cells expressing the number of functions indicated in the key. (B) Detailed analysis of functional profiles at [peptide] = 10^−6 M. Pie charts are extended with arc ...

CTL clone ILA1 = test: Bioassay: ILA1 CTL response to peptide-pulsed C1R-A2null targets (CD8-null HLA-A2), flow cytometry; type: cell-based; conditions: read-outs CD107a, MIP-1β, TNF-α, IL-2, IFN-γ
Procedure: Stable C1R transfectants expressing wild-type HLA-A2 (C1R-A2) or CD8-null HLA-A2 (C1R-A2null), the α3 domain of which contains the double mutation D227K/T228A that abrogates CD8 binding ([30]), were pulsed with peptide as indicated for 1 h at 37°C. For each condition, assays were set up simultaneously in 96-well plates using 4.5 × 10^5 C1R cells per well, thereby ensuring that all cellular parameters were consistent across ligand stimulations. Subsequently, brefeldin A (10 μg/ml; BD Biosciences) and monensin (0.7 μl/ml; BD Biosciences) were added together with a pre-titred concentration of the directly conjugated monoclonal antibody (mAb) αCD107a-FITC [BD Pharmingen; Ref. ([31])]. […]
Stained cell samples were acquired and recorded using a customized FACS Aria II flow cytometer (BD Biosciences) equipped for the simultaneous detection of 18 fluorescent parameters. […] The following gating tree was applied: (i) single cells were identified based on their light scatter properties; (ii) Boolean gating was carried out to exclude artifacts and fluorochrome aggregates; (iii) viable CD3^+CD19^− events were selected; (iv) outliers were eliminated in a side-scatter versus CD3 display; and (v) gates were set on cells positive for individual functional read-outs. […]

## ILAKFLHWL [residues 540–548 (…) of the human telomerase reverse transcriptase protein]
ILA1 TCR
  Kd: 32 µM
  Off-rate: 0.13 s⁻¹
  On-rate: 4,100 M^−1s^−1
CTL clone ILA1
  responses at sufficiently high presentation levels: strongly attenuated but discernible responses
